Test results from ChEMBL document CHEMBL1806450, “Synthesis of an aryloxy oxo pyrimidinone library that displays ALK-selective inhibition” (Bioorg Med Chem Lett, 2011).

How the values were obtained:
[1] = target: Hepatocyte growth factor receptor (Homo sapiens, UniProt P08581)
Description: Inhibition of recombinant MET using biotinylated-poly(GT) peptide as substrate after 60 mins

[2] = target: ALK tyrosine kinase receptor (Homo sapiens, UniProt Q9UM73)
Description: Inhibition of 6xHis-tagged NPM-ALK using biotinylated-poly(GT) peptide as substrate after 60 mins

[3] = target: Insulin receptor (Homo sapiens, UniProt P06213)
Insulin receptor, sequence (P06213 28-758 limits assumed): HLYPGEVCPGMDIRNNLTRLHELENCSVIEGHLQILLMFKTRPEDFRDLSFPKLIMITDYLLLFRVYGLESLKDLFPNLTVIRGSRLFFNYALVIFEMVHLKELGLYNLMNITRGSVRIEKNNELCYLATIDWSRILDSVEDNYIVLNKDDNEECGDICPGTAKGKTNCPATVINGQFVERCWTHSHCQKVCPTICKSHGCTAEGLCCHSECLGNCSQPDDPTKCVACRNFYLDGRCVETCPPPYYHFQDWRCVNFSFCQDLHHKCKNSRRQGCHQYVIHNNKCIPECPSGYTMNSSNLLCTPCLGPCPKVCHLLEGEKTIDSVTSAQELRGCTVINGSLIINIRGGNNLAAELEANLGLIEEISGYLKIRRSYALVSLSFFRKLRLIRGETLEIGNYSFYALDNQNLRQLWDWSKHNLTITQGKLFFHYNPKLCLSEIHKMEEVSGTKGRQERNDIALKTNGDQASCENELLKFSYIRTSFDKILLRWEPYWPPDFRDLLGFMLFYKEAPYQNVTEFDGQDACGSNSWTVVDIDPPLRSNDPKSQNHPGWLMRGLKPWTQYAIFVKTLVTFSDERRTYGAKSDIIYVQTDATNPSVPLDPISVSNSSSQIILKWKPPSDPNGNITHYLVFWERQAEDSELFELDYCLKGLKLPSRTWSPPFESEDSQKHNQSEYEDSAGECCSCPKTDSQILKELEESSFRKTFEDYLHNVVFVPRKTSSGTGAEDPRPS
Insulin receptor, sequence (P06213 763-1382 limits assumed): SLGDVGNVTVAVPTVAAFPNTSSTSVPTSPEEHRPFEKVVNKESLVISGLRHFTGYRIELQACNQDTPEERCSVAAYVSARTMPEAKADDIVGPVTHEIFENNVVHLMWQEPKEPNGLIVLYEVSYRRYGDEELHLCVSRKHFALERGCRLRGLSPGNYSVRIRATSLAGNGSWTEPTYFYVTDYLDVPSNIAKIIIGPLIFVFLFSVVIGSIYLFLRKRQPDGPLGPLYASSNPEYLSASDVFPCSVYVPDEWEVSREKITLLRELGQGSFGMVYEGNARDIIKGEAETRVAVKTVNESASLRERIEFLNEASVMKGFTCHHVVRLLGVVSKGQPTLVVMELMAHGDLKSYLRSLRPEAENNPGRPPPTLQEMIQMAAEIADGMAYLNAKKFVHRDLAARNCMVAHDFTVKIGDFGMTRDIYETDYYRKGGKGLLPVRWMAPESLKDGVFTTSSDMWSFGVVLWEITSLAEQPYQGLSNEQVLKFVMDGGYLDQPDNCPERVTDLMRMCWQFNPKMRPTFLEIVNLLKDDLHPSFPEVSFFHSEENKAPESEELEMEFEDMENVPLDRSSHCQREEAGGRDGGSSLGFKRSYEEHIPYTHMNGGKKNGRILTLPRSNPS
Description: Inhibition of recombinant IRK using biotinylated-poly(GT) peptide as substrate after 60 mins

Hepatocyte growth factor receptor, sequence (P08581 whole entry): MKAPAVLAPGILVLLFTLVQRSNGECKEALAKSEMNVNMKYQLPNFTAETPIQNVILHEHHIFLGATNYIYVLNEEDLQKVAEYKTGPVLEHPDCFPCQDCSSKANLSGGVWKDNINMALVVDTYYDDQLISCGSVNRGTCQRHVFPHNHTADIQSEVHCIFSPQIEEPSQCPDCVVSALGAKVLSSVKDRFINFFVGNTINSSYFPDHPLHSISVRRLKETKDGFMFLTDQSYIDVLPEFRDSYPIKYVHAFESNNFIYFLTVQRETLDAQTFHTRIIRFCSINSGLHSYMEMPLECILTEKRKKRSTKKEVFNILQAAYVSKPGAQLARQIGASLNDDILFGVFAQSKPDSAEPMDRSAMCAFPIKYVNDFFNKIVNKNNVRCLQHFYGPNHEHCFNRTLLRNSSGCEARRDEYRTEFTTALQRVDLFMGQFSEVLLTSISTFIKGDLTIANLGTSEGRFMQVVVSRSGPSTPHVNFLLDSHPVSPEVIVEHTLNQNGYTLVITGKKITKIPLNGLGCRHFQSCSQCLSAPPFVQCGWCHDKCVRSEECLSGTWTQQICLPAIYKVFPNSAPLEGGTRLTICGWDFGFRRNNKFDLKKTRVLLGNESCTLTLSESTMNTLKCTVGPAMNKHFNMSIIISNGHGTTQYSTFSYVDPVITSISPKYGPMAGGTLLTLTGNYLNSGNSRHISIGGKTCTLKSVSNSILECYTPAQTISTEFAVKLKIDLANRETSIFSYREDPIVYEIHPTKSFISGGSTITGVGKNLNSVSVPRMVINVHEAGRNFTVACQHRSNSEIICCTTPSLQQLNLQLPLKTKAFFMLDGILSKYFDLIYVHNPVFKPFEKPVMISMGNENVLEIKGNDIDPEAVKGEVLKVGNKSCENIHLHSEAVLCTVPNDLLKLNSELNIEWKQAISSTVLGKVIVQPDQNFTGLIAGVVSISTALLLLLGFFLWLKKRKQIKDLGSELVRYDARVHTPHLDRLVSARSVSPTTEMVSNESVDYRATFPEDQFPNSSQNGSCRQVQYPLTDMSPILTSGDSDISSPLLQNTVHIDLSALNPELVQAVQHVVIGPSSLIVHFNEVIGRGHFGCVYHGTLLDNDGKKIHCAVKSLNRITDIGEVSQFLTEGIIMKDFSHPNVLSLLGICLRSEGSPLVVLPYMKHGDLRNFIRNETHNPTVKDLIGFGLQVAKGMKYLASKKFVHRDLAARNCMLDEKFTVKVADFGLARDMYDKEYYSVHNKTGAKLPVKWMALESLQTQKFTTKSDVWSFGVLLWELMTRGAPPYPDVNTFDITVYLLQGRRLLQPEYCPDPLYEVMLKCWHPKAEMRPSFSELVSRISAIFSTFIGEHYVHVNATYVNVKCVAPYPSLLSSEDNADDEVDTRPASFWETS
ALK tyrosine kinase receptor, sequence (Q9UM73 whole entry): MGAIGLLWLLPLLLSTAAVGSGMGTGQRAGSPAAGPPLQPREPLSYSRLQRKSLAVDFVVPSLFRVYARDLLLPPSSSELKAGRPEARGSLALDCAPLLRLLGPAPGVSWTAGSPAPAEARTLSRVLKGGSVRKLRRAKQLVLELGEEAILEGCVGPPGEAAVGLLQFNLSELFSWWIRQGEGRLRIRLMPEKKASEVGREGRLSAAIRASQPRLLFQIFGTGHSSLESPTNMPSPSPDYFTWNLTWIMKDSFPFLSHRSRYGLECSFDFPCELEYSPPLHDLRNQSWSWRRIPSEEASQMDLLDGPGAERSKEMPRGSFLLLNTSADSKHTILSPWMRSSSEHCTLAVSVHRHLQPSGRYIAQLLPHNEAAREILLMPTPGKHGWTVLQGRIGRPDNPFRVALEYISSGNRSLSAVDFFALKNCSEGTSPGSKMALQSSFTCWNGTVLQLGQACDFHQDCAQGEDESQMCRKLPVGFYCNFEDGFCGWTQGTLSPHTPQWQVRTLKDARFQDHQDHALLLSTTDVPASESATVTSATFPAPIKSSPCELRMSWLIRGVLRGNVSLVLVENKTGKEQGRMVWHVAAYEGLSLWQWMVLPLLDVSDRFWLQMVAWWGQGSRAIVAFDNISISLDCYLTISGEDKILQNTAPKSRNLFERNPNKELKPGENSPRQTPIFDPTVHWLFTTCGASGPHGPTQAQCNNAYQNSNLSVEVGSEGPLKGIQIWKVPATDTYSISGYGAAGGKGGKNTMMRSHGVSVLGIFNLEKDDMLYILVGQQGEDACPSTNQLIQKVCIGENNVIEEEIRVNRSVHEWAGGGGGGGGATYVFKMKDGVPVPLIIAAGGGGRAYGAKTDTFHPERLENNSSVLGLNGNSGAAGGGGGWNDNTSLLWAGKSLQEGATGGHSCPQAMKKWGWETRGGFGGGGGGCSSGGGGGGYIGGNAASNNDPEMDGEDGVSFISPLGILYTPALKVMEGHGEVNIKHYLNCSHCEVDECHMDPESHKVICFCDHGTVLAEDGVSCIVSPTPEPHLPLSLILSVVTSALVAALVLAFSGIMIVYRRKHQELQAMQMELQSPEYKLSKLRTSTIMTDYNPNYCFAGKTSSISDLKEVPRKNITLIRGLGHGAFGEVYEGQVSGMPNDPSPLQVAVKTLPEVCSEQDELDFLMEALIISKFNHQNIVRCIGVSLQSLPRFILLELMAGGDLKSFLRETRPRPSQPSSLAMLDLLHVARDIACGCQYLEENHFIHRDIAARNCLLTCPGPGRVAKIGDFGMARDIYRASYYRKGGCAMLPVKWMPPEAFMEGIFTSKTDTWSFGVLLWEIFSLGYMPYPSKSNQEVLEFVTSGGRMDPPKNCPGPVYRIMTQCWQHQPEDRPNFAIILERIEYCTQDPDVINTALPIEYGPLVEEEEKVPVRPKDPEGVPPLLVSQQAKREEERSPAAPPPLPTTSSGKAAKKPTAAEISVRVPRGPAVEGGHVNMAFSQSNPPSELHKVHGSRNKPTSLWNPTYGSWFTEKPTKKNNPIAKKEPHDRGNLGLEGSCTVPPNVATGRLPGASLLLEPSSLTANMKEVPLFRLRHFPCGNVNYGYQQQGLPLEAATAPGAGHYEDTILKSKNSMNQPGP

Row | Structure (SMILES) | IC50 [1] [µM] | IC50 [2] [µM] | IC50 [3] [µM]
1 | COc1cc(Oc2nc[nH]c(=O)c2/C=C/C(C)=O)c(C(C)=O)cc1OC | > 40 | 7.54 | > 40
2 | CC(=O)/C=C/c1c(Oc2ccc(C)cc2)nc[nH]c1=O | > 40 | > 40 | > 40
3 | CCOC(=O)/C=C/c1c(Oc2ccc(C(C)(C)C)cc2)nc[nH]c1=O | > 40 | > 40 | > 40
4 | CCOC(=O)/C=C/c1c(Oc2ccc(OC)cc2C(=O)OC)nc[nH]c1=O | > 40 | > 40 | > 40
5 | CCOC(=O)/C=C/c1c(Oc2ccc(C)cc2)nc[nH]c1=O | > 40 | > 40 | > 40
6 | CCOC(=O)/C=C/c1c(Oc2cccc(C#N)c2)nc[nH]c1=O | > 40 | > 40 | > 40
7 | CCOC(=O)/C=C/c1c(Oc2cccc(OC)c2)nc[nH]c1=O | > 40 | > 40 | > 40
8 | CCOC(=O)c1ccc(Oc2nc[nH]c(=O)c2/C=C/C(C)=O)cc1 | > 40 | > 40 | > 40
9 | COC(=O)c1cccc(Oc2nc[nH]c(=O)c2C2CC(C)=NN2)c1 (stereo not drawn) | > 40 | > 40 | > 40
10 | COC(=O)c1cccc(Oc2nc[nH]c(=O)c2-c2cccc(OC)c2)c1 | > 40 | > 40 | > 40
11 | CCOC(=O)/C=C/c1c(Oc2ccccc2Cl)nc[nH]c1=O | > 40 | > 40 | > 40
12 | COC(=O)c1cccc(Oc2nc[nH]c(=O)c2C2CC(C)=NN2C(C)=O)c1 (stereo not drawn) | > 40 | 9 | > 40
13 | CC(=O)/C=C/c1c(Oc2ccccc2Cl)nc[nH]c1=O | > 40 | > 40 | > 40
14 | COC(=O)c1cccc(Oc2nc[nH]c(=O)c2-c2cccc(N)c2)c1 | > 40 | > 40 | > 40
15 | CC(=O)/C=C/c1c(Oc2ccc(C(C)(C)C)cc2)nc[nH]c1=O | > 40 | > 40 | > 40
16 | CC(=O)/C=C/c1c(Oc2cccc(C(C)=O)c2)nc[nH]c1=O | > 40 | 6.25 | > 40
17 | COc1cccc(OC)c1Oc1nc[nH]c(=O)c1/C=C/C(C)=O | > 40 | > 40 | > 40
18 | CC(=O)/C=C/c1c(Oc2ccc(C)cc2C(C)=O)nc[nH]c1=O | > 40 | > 40 | > 40
19 | COC(=O)c1cccc(Oc2nc[nH]c(=O)c2/C=C/C(C)=O)c1 | 4.01 | 3.03 | > 40
20 | COC(=O)c1cccc(Oc2nc[nH]c(=O)c2-c2cccc(C)c2)c1 | > 40 | > 40 | > 40
21 | CCOC(=O)/C=C/c1c(Oc2ccc(F)cc2)nc[nH]c1=O | > 40 | > 40 | > 40
22 | COC(=O)c1cc(Cl)ccc1Oc1nc[nH]c(=O)c1/C=C/C(C)=O | > 40 | > 40 | > 40
23 | COC(=O)c1cccc(Oc2nc[nH]c(=O)c2-c2ccncc2)c1 | > 40 | > 40 | > 40

Row | Structure (SMILES) | IC50 [1] [µM] | IC50 [2] [µM] | IC50 [3] [µM]
24 | CCOC(=O)c1ccccc1Oc1nc[nH]c(=O)c1/C=C/C(C)=O | > 40 | 7.54 | > 40
25 | CC(=O)/C=C/c1c(Oc2ccc(C(C)=O)c(F)c2)nc[nH]c1=O | > 40 | > 40 | > 40
26 | CC(=O)/C=C/c1c(Oc2cccc(C#N)c2)nc[nH]c1=O | > 40 | > 40 | > 40
27 | CC(=O)/C=C/c1c(Oc2ccc(O)cc2)nc[nH]c1=O | > 40 | 7.57 | > 40
28 | COc1cc(Cl)ccc1Oc1nc[nH]c(=O)c1/C=C/C(C)=O | > 40 | > 40 | > 40
29 | CC(=O)/C=C/c1c(Oc2ccccc2C(C)=O)nc[nH]c1=O | > 40 | > 40 | > 40
30 | CC(=O)/C=C/c1c(Oc2ccc(C#N)cc2)nc[nH]c1=O | > 40 | 6.91 | > 40
31 | COC(=O)c1cccc(Oc2nc[nH]c(=O)c2-c2ccccc2)c1 | > 40 | > 40 | > 40
32 | CC(=O)/C=C/c1c(Oc2ccc(NC(C)=O)cc2)nc[nH]c1=O | > 40 | 6.64 | > 40
33 | CC(=O)/C=C/c1c(Oc2c(Cl)cccc2Cl)nc[nH]c1=O | > 40 | > 40 | > 40
34 | COC(=O)c1cccc(Oc2nc[nH]c(=O)c2C2CC(C)=NN2C)c1 (stereo not drawn) | > 40 | > 40 | > 40
35 | CCOC(=O)/C=C/c1c(Oc2c(Cl)cccc2Cl)nc[nH]c1=O | > 40 | > 40 | > 40
36 | CC(=O)/C=C/c1c(Oc2cc(C(F)(F)F)ccc2Cl)nc[nH]c1=O | > 40 | 9.87 | > 40
37 | CCOC(=O)/C=C/c1c(Oc2c(OC)cccc2OC)nc[nH]c1=O | > 40 | > 40 | > 40
38 | CCOC(=O)/C=C/c1c(Oc2ccc(Cl)cc2OC)nc[nH]c1=O | > 40 | > 40 | > 40
39 | COc1cccc(Oc2nc[nH]c(=O)c2/C=C/C(C)=O)c1 | > 40 | > 40 | > 40
40 | COC(=O)c1ccc(OC)cc1Oc1nc[nH]c(=O)c1/C=C/C(C)=O | > 40 | 10.2 | > 40
41 | CC(=O)/C=C/c1c(Oc2c(C)cc(C(C)=O)cc2C)nc[nH]c1=O | > 40 | > 40 | > 40
42 | COC(=O)c1cc(OC)ccc1Oc1nc[nH]c(=O)c1/C=C/C(C)=O | > 40 | > 40 | > 40
43 | CCCCCCOC(=O)c1ccccc1Oc1nc[nH]c(=O)c1/C=C/C(C)=O | > 40 | > 40 | > 40
44 | CCOC(=O)/C=C/c1c(Oc2cccc(C(=O)OC)c2)nc[nH]c1=O | > 40 | > 40 | > 40
45 | COC(=O)c1cccc(Oc2nc[nH]c(=O)c2CCC(C)=O)c1 | > 40 | > 40 | > 40
46 | CC(=O)/C=C/c1c(Oc2ccc(F)cc2)nc[nH]c1=O | > 40 | > 40 | > 40
